# Test results as given in patent US9302999B2, “Substituted triazoles as herbicides” (E. I. DU PONT DE NEMOURS AND COMPANY, priority 2012, dated 2016).
# Key:
# Type in all cases: in vivo
# [1] = system: sedge, umbrella (small-flower umbrella sedge, Cyperus difformis); assay: Test C flooded paddy test: sedge, umbrella; details: scale 0 to 100 (0 no effect, 100 complete control)
# In short: (§1)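 Plants at 2-leaf stage in pots flooded 3 cm above soil; compounds applied directly into the paddy water, depth maintained. Visual rating against controls after 13–15 days in greenhouse, scale 0 (no effect) to 100 (complete control).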
# [2] = system: barnyardgrass (Echinochloa crus-galli); assay: Test C flooded paddy test: barnyardgrass; details: scale 0 to 100 (0 no effect, 100 complete control)
# In short: as §1
# [3] = system: bluegrass (annual bluegrass, Poa annua); assay: Test D pre-/postemergence: bluegrass
# Source text: (§2) Seeds of plant species selected from bluegrass (annual bluegrass, Poa annua), blackgrass (Alopecurus myosuroides), canarygrass (Phalaris minor), chickweed (common chickweed, Stellaria media), galium (catchweed bedstraw, Galium aparine), bromegrass, downy (downy bromegrass, Bromus tectorum), field poppy (Papaver rhoeas), field violet (Viola arvensis), foxtail, green (green foxtail, Setaria viridis), deadnettle (henbit deadnettle, Lamium amplexicaule), ryegrass, Italian (Italian ryegrass, Lolium multiflorum), kochia (Kochia scoparia), lambsquarters (Chenopodium album), oilseed rape (Brassica napus), pigweed (Amaranthus retroflexus), Russian thistle (Salsola iberica), chamomile (scentless chamomile, Matricaria inodora), speedwell (bird's-eye speedwell, Veronica persica), barley, spring (spring barley, Hordeum vulgare), wheat, spring (spring wheat, Triticum aestivum), buckwheat, wild (wild buckwheat, Polygonum convolvulus), mustard, wild (wild mustard, Sinapis arvensis), oat, wild (wild oat, Avena fatua), radish, wild (wild radish, Raphanus raphanistrum), windgrass (Apera spica-venti), barley, winter (winter barley, Hordeum vulgare), and wheat, winter (winter wheat, Triticum aestivum) were planted into a silt loam soil and treated preemergence with test chemicals formulated in a non-phytotoxic solvent mixture which included a surfactant. At the same time, these same crop and weed species were planted in pots containing the planting medium comprising spaghnum peat moss, vermiculite, wetting agent and starter nutrients and treated with postemergence applications of the test chemicals formulated in the same manner. Plants ranged in height from 2 to 18 cm (1- to 4-leaf stage).
# (§3) Treated plants and controls were maintained in a controlled growth environment for 14 to 21 days after which time all species were compared to controls and visually evaluated. Plant response ratings, summarized in Table D, are based on a scale of 0 to 100 where 0 is no effect and 100 is complete control. A dash (-) response means no test result.
# [4] = system: mustard, wild (wild mustard, Sinapis arvensis); assay: Test D pre-/postemergence: mustard, wild
# Source text: as §2, §3
# [5] = system: galium (catchweed bedstraw, Galium aparine); assay: Test D pre-/postemergence: galium
# In short: (§4)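 Visual 0–100 rating versus untreated controls (0 no effect, 100 complete control), taken 14 to 21 days after treatment in a controlled growth environment. Preemergence: silt loam soil. Postemergence: peat moss/vermiculite medium, plants 2 to 18 cm, 1- to 4-leaf stage. Solvent mixture with surfactant.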
# [6] = system: windgrass (Apera spica-venti); assay: Test D pre-/postemergence: windgrass
# In short: as §4
# [7] = system: crabgrass, Brazil (Brazilian crabgrass, Digitaria horizontalis); assay: Test F pre-/postemergence: crabgrass, Brazil
# Source text: Seeds of plant species selected from corn (Zea mays), soybean (Glycine max), velvetleaf (Abutilon theophrasti), lambsquarters (Chenopodium album), poinsettia, wild (wild poinsettia, Euphorbia heterophylla), pigweed, palmer (palmer pigweed, Amaranthus palmeri), waterhemp (common waterhemp, Amaranthus rudis), surinam grass (Brachiaria decumbens), crabgrass, Brazil (Brazilian crabgrass, Digitaria horizontalis), panicum, fall (fall panicum Panicum dichotomiflorum), crabgrass, large (large crabgrass, Digitaria sanguinalis), foxtail, giant (giant foxtail, Setaria faberii), foxtail, green (green foxtail Setaria viridis), goosegrass (Eleusine indica), ragweed (common ragweed, Ambrosia elatior), barnyardgrass (Echinochloa crus-galli), sandbur (southern sandbur, Cenchrus echinatus), arrowleaf sida (Sida rhombifolia), ryegrass, Italian (Italian ryegrass, Lolium multiflorum), dayflower, VA (Virginia (VA) dayflower, Commelina virginica), field bindweed (Convolvulus arvensis), cocklebur (common cocklebur, Xanthium strumarium), morningglory (Ipomoea coccinea), nightshade (eastern black nightshade, Solanum ptycanthum), kochia (Kochia scoparia), nutsedge, yellow (yellow nutsedge, Cyperus esculentus), johnsongrass (Sorghum halepense), smartweed (ladysthumb smartweed, Polygonum persicaria), and beggarticks (hairy beggarticks, Bidens pilosa), were planted into a silt loam soil and treated preemergence with test chemicals formulated in a non-phytotoxic solvent mixture which included a surfactant. At the same time, plants selected from these crop and weed species and also pigweed (Amaranthus retroflexus), waterhemp_RES1 (ALS/Triazine resistant common waterhemp, Amaranthus rudis) and waterhemp_RES2 (ALS/HPPD resistant common waterhemp, Amaranthus rudis) were planted in pots containing a planting medium comprising spaghnum peat moss, vermiculite, wetting agent and starter nutrients treated with postemergence applications of some of the test chemicals formulated in the same manner. Plants ranged in height from 2 to 18 cm for postemergence treatments (1- to 4-leaf stage).
# as §3, with “greenhouse” for “controlled growth environment”, “days,” for “days”, “E,” for “D,”
# [8] = Flood (flooded paddy test), 62 g ai/ha, visual rating after 13 to 15 days
# [9] = Flood (flooded paddy test), 125 g ai/ha, visual rating after 13 to 15 days
# [10] = Flood (flooded paddy test), 250 g ai/ha, visual rating after 13 to 15 days
# [11] = Postemergence, 31 g ai/ha, scale 0 to 100 (0 no effect, 100 complete control)
# [12] = Postemergence, 62 g ai/ha, scale 0 to 100 (0 no effect, 100 complete control)
# [13] = Postemergence, 125 g ai/ha, scale 0 to 100, 0 no effect, 100 complete control
# [14] = Postemergence, 250 g ai/ha, scale 0 to 100 (0 no effect, 100 complete control)
# [15] = Postemergence, 16 g ai/ha, scale 0 to 100
# [16] = Preemergence, 62 g ai/ha, scale 0 to 100
# [17] = Preemergence, 125 g ai/ha, scale 0 to 100
# [18] = Preemergence, 250 g ai/ha, scale 0 to 100
# [19] = Preemergence, 31 g ai/ha, scale 0 to 100, 0 no effect, 100 complete control
# [20] = Preemergence, 16 g ai/ha, scale 0 to 100, 0 no effect, 100 complete control
smiles,measurement,setting,value
Cc1nn(-c2ccc(C(F)(F)F)cn2)nc1Oc1ccnc(C(F)(F)F)c1 [Compound 23],"Plant response rating, Sedge, Umbrella",[1]; [8],75
same,"Plant response rating, Sedge, Umbrella",[1]; [9],80
same,"Plant response rating, Sedge, Umbrella",[1]; [10],90
same,"Plant response rating, Sedge, Umbrella","[1]; Flood, 31 g ai/ha",60
same,"Plant response rating, Barnyardgrass",[2]; [8],0
same,"Plant response rating, Barnyardgrass",[2]; [9],20
same,"Plant response rating, Barnyardgrass",[2]; [10],25
same,"Plant response rating, Barnyardgrass","[2]; Flood, 31 g ai/ha",0
same,Plant response rating: Bluegrass,[3]; [11],20
same,Plant response rating: Bluegrass,[3]; [12],25
same,Plant response rating: Bluegrass,[3]; [13],30
same,Plant response rating: Bluegrass,[3]; [14],40
same,"Plant response rating, Bluegrass",[3]; [15],20
same,"Plant response rating: Mustard, Wild",[4]; [11],40
same,"Plant response rating: Mustard, Wild",[4]; [12],85
same,"Plant response rating: Mustard, Wild",[4]; [13],100
same,"Plant response rating: Mustard, Wild",[4]; [14],100
same,"Plant response rating, Mustard, Wild",[4]; [15],20
same,Plant response rating: Galium,[5]; [11],30
same,Plant response rating: Galium,[5]; [12],50
same,Plant response rating: Galium,[5]; [13],70
same,Plant response rating: Galium,[5]; [14],90
same,"Plant response rating, Galium",[5]; [15],25
same,Plant response rating: Windgrass,[6]; [11],5
same,Plant response rating: Windgrass,[6]; [12],10
same,Plant response rating: Windgrass,[6]; [13],20
same,Plant response rating: Windgrass,[6]; [14],30
same,"Plant response rating, Windgrass",[6]; [15],0
Cc1nn(-c2ccc(C(F)(F)F)cn2)nc1Cc1cccc(C(F)(F)F)c1 [Compound 106],"Plant response rating, Sedge, Umbrella",[1]; [9],75
same,"Plant response rating, Sedge, Umbrella",[1]; [10],80
same,"Plant response rating, Sedge, Umbrella","[1]; Flood, 31 g ai/ha",50
same,"Plant response rating, Sedge, Umbrella","[1]; Flood, 62 g ai/ha",50
same,"Plant response rating, Barnyardgrass",[2]; [9],20
same,"Plant response rating, Barnyardgrass",[2]; [10],40
same,"Plant response rating, Barnyardgrass","[2]; Flood, 31 g ai/ha",0
same,"Plant response rating, Barnyardgrass","[2]; Flood, 62 g ai/ha",0
same,Plant response rating: Bluegrass,[3]; [11],10
same,Plant response rating: Bluegrass,[3]; [12],10
same,Plant response rating: Bluegrass,[3]; [13],15
same,Plant response rating: Bluegrass,[3]; [14],30
same,"Plant response rating, Bluegrass",[3]; [15],10
same,"Plant response rating, Bluegrass",[3]; [16],0
same,"Plant response rating, Bluegrass",[3]; [17],0
same,"Plant response rating, Bluegrass",[3]; [18],0
same,"Plant response rating: Mustard, Wild",[4]; [11],80
same,"Plant response rating: Mustard, Wild",[4]; [12],80
same,"Plant response rating: Mustard, Wild",[4]; [13],90
same,"Plant response rating: Mustard, Wild",[4]; [14],100
same,"Plant response rating, Mustard, Wild",[4]; [15],20
same,"Plant response rating, Mustard, Wild",[4]; [19],20
same,"Plant response rating, Mustard, Wild",[4]; [16],50
same,"Plant response rating, Mustard, Wild",[4]; [17],50
same,"Plant response rating, Mustard, Wild",[4]; [18],60
same,Plant response rating: Galium,[5]; [11],40
same,Plant response rating: Galium,[5]; [12],40
same,Plant response rating: Galium,[5]; [13],40
same,Plant response rating: Galium,[5]; [14],60
same,"Plant response rating, Galium",[5]; [15],20
same,"Plant response rating, Galium",[5]; [19],0
same,"Plant response rating, Galium",[5]; [16],0
same,"Plant response rating, Galium",[5]; [17],40
same,"Plant response rating, Galium",[5]; [18],80
same,Plant response rating: Windgrass,[6]; [11],10
same,Plant response rating: Windgrass,[6]; [12],25
same,Plant response rating: Windgrass,[6]; [13],35
same,Plant response rating: Windgrass,[6]; [14],50
same,"Plant response rating, Windgrass",[6]; [15],5
same,"Plant response rating, Windgrass",[6]; [19],5
same,"Plant response rating, Windgrass",[6]; [16],5
same,"Plant response rating, Windgrass",[6]; [17],25
same,"Plant response rating, Windgrass",[6]; [18],80
Cc1nn(-c2ccc(C(F)(F)F)cc2)nc1Oc1ccnc(C(F)(F)F)c1 [Compound 120],"Plant response rating, Sedge, Umbrella",[1]; [9],90
same,"Plant response rating, Sedge, Umbrella",[1]; [10],90
same,"Plant response rating, Sedge, Umbrella","[1]; Flood, 62 g ai/ha",85
same,"Plant response rating, Barnyardgrass",[2]; [9],80
same,"Plant response rating, Barnyardgrass",[2]; [10],80
same,"Plant response rating, Barnyardgrass","[2]; Flood, 62 g ai/ha",65
same,Plant response rating: Bluegrass,[3]; [11],10
same,Plant response rating: Bluegrass,[3]; [12],40
same,Plant response rating: Bluegrass,[3]; [13],70
same,Plant response rating: Bluegrass,[3]; [14],95
same,"Plant response rating, Bluegrass",[3]; [15],10
same,"Plant response rating, Bluegrass",[3]; [20],0
same,"Plant response rating, Bluegrass",[3]; [19],100
same,"Plant response rating, Bluegrass",[3]; [16],100
same,"Plant response rating, Bluegrass",[3]; [17],100
same,"Plant response rating, Bluegrass",[3]; [18],100
same,"Plant response rating, Mustard, Wild",[4]; [20],0
same,"Plant response rating, Mustard, Wild",[4]; [16],90
same,"Plant response rating, Mustard, Wild",[4]; [17],100
same,"Plant response rating, Mustard, Wild",[4]; [18],100
same,Plant response rating: Galium,[5]; [11],60
same,Plant response rating: Galium,[5]; [12],70
same,Plant response rating: Galium,[5]; [13],98
same,Plant response rating: Galium,[5]; [14],100
same,"Plant response rating, Galium",[5]; [15],50
same,"Plant response rating, Galium",[5]; [20],0
same,"Plant response rating, Galium",[5]; [19],15
same,"Plant response rating, Galium",[5]; [16],65
same,"Plant response rating, Galium",[5]; [17],100
same,"Plant response rating, Galium",[5]; [18],100
same,Plant response rating: Windgrass,[6]; [11],15
same,Plant response rating: Windgrass,[6]; [12],95
same,Plant response rating: Windgrass,[6]; [13],100
same,Plant response rating: Windgrass,[6]; [14],100
same,"Plant response rating, Windgrass",[6]; [15],5
same,"Plant response rating, Windgrass",[6]; [20],0
same,"Plant response rating, Windgrass",[6]; [19],80
same,"Plant response rating, Windgrass",[6]; [16],100
same,"Plant response rating, Windgrass",[6]; [17],100
same,"Plant response rating, Windgrass",[6]; [18],100
Cc1nn(-c2ccnc(Cl)c2)nc1Cc1ccnc(C(F)(F)F)c1 [Compound 141],"Plant response rating, Crabgrass, Brazil","[7]; Postemergence, 8 g ai/ha, scale 0 to 100",70
same,"Plant response rating, Crabgrass, Brazil",[7]; [15],80
same,"Plant response rating, Crabgrass, Brazil","[7]; Postemergence, 31 g ai/ha, scale 0 to 100",95
same,"Plant response rating, Crabgrass, Brazil","[7]; Postemergence, 62 g ai/ha, scale 0 to 100",95
same,"Plant response rating, Crabgrass, Brazil","[7]; Postemergence, 125 g ai/ha, scale 0 to 100",95
CCc1nn(-c2ccc(F)cc2)nc1Cc1ccnc(C(F)(F)F)c1 [Compound 154],"Plant response rating, Crabgrass, Brazil",[7]; [20],75
same,"Plant response rating, Crabgrass, Brazil",[7]; [19],100
same,"Plant response rating, Crabgrass, Brazil",[7]; [16],100
same,"Plant response rating, Crabgrass, Brazil",[7]; [17],100
same,"Plant response rating, Crabgrass, Brazil",[7]; [18],100
